Data as given in BigSolDB 2.1.

Conditions: in water

N#CN=C(N)N
Conditions	solubility (mole fraction)
278.15 K	0.00303
283.15 K	0.00387
288.15 K	0.00526
293.15 K	0.00707
298.15 K	0.00891
303.15 K	0.0114
308.15 K	0.0141
313.15 K	0.0172
318.15 K	0.021
323.15 K	0.0265
